Counter-ions that a name gives are not always drawn.
Key:
HCT116 [1] = conditions: 72 h
In short: (§1)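 In 1536-well plates, 250 HCT116 cells per well were seeded and left for 5 h to attach. Luminescence from CellTiter-Glo was set against vehicle (0%) and positive control (-100%), and pattern correction was applied. IC50 and maximal efficacy come from four-parameter Hill fitting.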

HCT116 [2] = test: efficacy (maximum % inhibition of viability vs DMSO); higher = more cytotoxic; conditions: 72 h
In short: as §1

IC50 cell viability (HCT116 [1]; ICRF193 0 nM) [µM]	IC50 cell viability (HCT116 [1]; ICRF193 200 nM) [µM]	SMILES	efficacy (HCT116 [2]; ICRF193 0 nM) [%]	efficacy (HCT116 [2]; ICRF193 200 nM) [%]
29.1	23.1	CCCCC[C@H](O)/C=C/[C@H]1[C@H](O)CC(=O)[C@@H]1C/C=C\CCCC(=O)O [Prostaglandin E2]	68.9	84.7
> 45.8	29.1	CCCSS/C(CCO)=C(/C)N(C=O)Cc1cnc(C)nc1N [Prosultiamine]		43.7
29.1	29.1	CNCCCC1c2ccccc2C=Cc2ccccc21 [Protriptyline hydrochloride]	68.2	95.4
11.6	9.2	CCc1nc(N)nc(N)c1-c1ccc(Cl)cc1 [Pyrimethamine]	106	93.4
14.6	18.3	O=[N+]([O-])c1c(Cl)cccc1-c1c[nH]cc1Cl [Pyrrolnitrin]	54.1	55.5
20.6	23.1	C#C[C@]1(O)CC[C@H]2[C@@H]3CCc4cc(OC5CCCC5)ccc4[C@H]3CC[C@@]21C [Quinestrol]	55	56.3
18.3	20.6	O=C(c1ccc(OCCN2CCCCC2)cc1)c1c(-c2ccc(O)cc2)sc2cc(O)ccc12 [Raloxifene hydrochloride]	98.1	88.8
8.2	5.8	CNC(=O)c1cc(Oc2ccc(NC(=O)Nc3ccc(Cl)c(C(F)(F)F)c3)c(F)c2)ccn1 [Regorafenib]	67.3	80.7
20.6	29.1	COC(=O)[C@H]1[C@H]2C[C@@H]3c4[nH]c5cc(OC)ccc5c4CCN3C[C@H]2C[C@@H](OC(=O)/C=C/c2ccc(O)c(OC)c2)[C@@H]1OC [Rescimetol]	101	106
> 45.8	16.4	COC(=O)[C@H]1[C@H]2C[C@@H]3c4[nH]c5cc(OC)ccc5c4CCN3C[C@H]2C[C@@H](OC(=O)c2cc(OC)c(OC)c(OC)c2)[C@@H]1OC [Reserpine]		42.6
> 45.8	29.1	Oc1cccc(O)c1 [Resorcinol]		46.8
1.16	0.291	C=CCNc1c(O)cc2c(O)c1C[C@@H](C)C[C@H](OC)[C@H](O)[C@@H](C)/C=C(\C)[C@H](OC(N)=O)[C@@H](OC)/C=C\C=C(/C)C(=O)N2 [Retaspimycin (Hydrochloride)]	80.4	79.8
29.1	18.3	CCCC(=O)OC[C@@H](OC(=O)CCC)[C@@H](OC(=O)CCC)[C@H](Cn1c2nc(=O)[nH]c(=O)c-2nc2cc(C)c(C)cc21)OC(=O)CCC [Riboflavin tetrabutyrate]	64.5	82.1
> 45.8	14.2	Cc1cc2nc3c(=O)[nH]c(=O)nc-3n(C[C@H](O)[C@H](O)[C@H](O)CO)c2cc1C [Riboflavin]		57.7
29.1	29.1	CO[C@H]1/C=C/O[C@@]2(C)Oc3c(C)c(O)c4c(O)c(c(/C=N/N5CCN(C)CC5)c(O)c4c3C2=O)NC(=O)/C(C)=C\C=C\[C@H](C)[C@H](O)[C@@H](C)[C@@H](O)[C@@H](C)[C@H](OC(C)=O)[C@@H]1C [Rifampicin]	44.2	44.1
20.6	18.3	Cc1cc(/C=C/C#N)cc(C)c1Nc1ccnc(Nc2ccc(C#N)cc2)n1 [Rilpivirine]	83.7	84.8
> 45.8	23.1	Nc1nc2ccc(OC(F)(F)F)cc2s1 [Riluzole]		46.2
18.3	29.1	Cc1c(C(=O)NN2CCCCC2)nn(-c2ccc(Cl)cc2Cl)c1-c1ccc(Cl)cc1 [Rimonabant]	64.4	87.3
> 45.8	20.6	CC(C)c1nc(CN(C)C(=O)N[C@H](C(=O)N[C@@H](Cc2ccccc2)C[C@H](O)[C@H](Cc2ccccc2)NC(=O)OCc2cncs2)C(C)C)cs1 [Ritonavir]		57.4
16.4	11.6	O=C(O)c1c(Cl)c(Cl)c(Cl)c(Cl)c1-c1c2cc(I)c(=O)c(I)c-2oc2c(I)c(O)c(I)cc12 [Rose Bengal disodium]	74.2	62.4
0.447	0.0891	CC[C@@]1(O)C(=O)OCc2c1cc1n(c2=O)Cc2cc3c([N+](=O)[O-])cccc3nc2-1 [Rubitecan]	81.2	96.5
18.3	20.6	Cc1cncc(CN2CCC(=C3c4ccc(Cl)cc4CCc4cccnc43)CC2)c1 [Rupatadine (Fumarate)]	56.6	88.3
29.1	29.1	N#CC[C@H](C1CCCC1)n1cc(-c2ncnc3[nH]ccc23)cn1 [Ruxolitinib]	85.9	88.8
29.1	20.6	CO[C@H]1C[C@H](O[C@@H]2/C(C)=C/C[C@@H]3C[C@@H](C[C@]4(CC[C@H](C)[C@@H](C5CCCCC5)O4)O3)OC(=O)[C@@H]3C=C(C)/C(=N/O)[C@H]4OC/C(=C\C=C\[C@@H]2C)[C@]43O)O[C@@H](C)[C@@H]1O [SELAMECTIN]	99.6	109

IC50 cell viability (HCT116 [1]; ICRF193 0 nM) [µM]	IC50 cell viability (HCT116 [1]; ICRF193 200 nM) [µM]	SMILES	efficacy (HCT116 [2]; ICRF193 0 nM) [%]	efficacy (HCT116 [2]; ICRF193 200 nM) [%]
23.1	23.1	OCc1cc(C(O)CNCCCCCCOCCCCc2ccccc2)ccc1O (stereo not drawn) [Salmeterol xinafoate]	108	110
2.83	2.53	C[n+]1cc2c3c(ccc2c2ccc4cc5c(cc4c21)OCO5)OCO3 [Sanguinarine]	98.2	91.6
29.1	20.6	CC(C)(C)NC(=O)[C@@H]1C[C@@H]2CCCC[C@@H]2CN1C[C@@H](O)[C@H](Cc1ccccc1)NC(=O)[C@H](CC(N)=O)NC(=O)c1ccc2ccccc2n1 [Saquinavir]	84.1	108
16.4	23.1	O=C1NCCN1CCN1CCC(c2cn(-c3ccc(F)cc3)c3ccc(Cl)cc23)CC1 [Sertindole]	105	117
18.3	18.3	CN[C@H]1CC[C@@H](c2ccc(Cl)c(Cl)c2)c2ccccc21 [Sertraline hydrochloride]	95.4	97.5
20.6	29.1	CO[C@H]1C[C@@H]2CC[C@@H](C)[C@@](O)(O2)C(=O)C(=O)N2CCCC[C@H]2C(=O)O[C@H]([C@H](C)C[C@@H]2CC[C@@H](O)[C@H](OC)C2)CC(=O)[C@H](C)/C=C(\C)[C@@H](O)[C@@H](OC)C(=O)[C@H](C)C[C@H](C)/C=C/C=C/C=C/1C [Sirolimus]	91.7	88.6
29.1	> 45.8	CC(C)=CCOc1ccc(/C=C/C(=O)c2ccc(OCC=C(C)C)cc2OCC(=O)O)cc1 [Sofalcone]	108	
10.3	13	Cc1c(C(=O)Nc2ccc(N3C[C@@H](C)O[C@@H](C)C3)nc2)cccc1-c1ccc(OC(F)(F)F)cc1 [Sonidegib]	42.7	60.5
20.6	29.1	CNC(=O)c1cc(Oc2ccc(NC(=O)Nc3ccc(Cl)c(C(F)(F)F)c3)cc2)ccn1 [Sorafenib]	113	52.1
20.6	23.1	O=C1CSC2(CCN(CCCN3c4ccccc4Sc4ccc(Cl)cc43)CC2)N1 [Spiclomazine hydrochloride]	81.3	82.5
16.4	20.6	CC(=O)S[C@@H]1CC2=CC(=O)CC[C@]2(C)[C@H]2CC[C@@]3(C)[C@@H](CC[C@@]34CCC(=O)O4)[C@H]12 [Spironolactone]	50.9	73.6
> 45.8	6.51	OC[C@H]1O[C@H](O[C@]2(CCl)O[C@H](CCl)[C@@H](O)[C@@H]2O)[C@H](O)[C@@H](O)[C@H]1Cl [Sucralose]		44.6
29.1	18.3	Clc1ccc(CSC(Cn2ccnc2)c2ccc(Cl)cc2Cl)cc1 (stereo not drawn) [Sulconazole nitrate]	89.6	76.4
18.3	16.4	CCN(CC)CCNC(=O)c1c(C)[nH]c(/C=C2\C(=O)Nc3ccc(F)cc32)c1C [Sunitinib malate]	108	111
> 45.8	25.9	CCCCC1(COC(=O)CCC(=O)O)C(=O)N(c2ccccc2)N(c2ccccc2)C1=O [Suxibuzone]		58.2
29.1	16.4	CCOC(=O)Oc1c(OC)cc(C(=O)O[C@@H]2C[C@@H]3CN4CCc5c([nH]c6cc(OC)ccc56)[C@H]4C[C@@H]3[C@H](C(=O)OC)[C@H]2OC)cc1OC [Syrosingopine]	112	101
25.9	29.1	CCO/N=C(\C(=O)N[C@@H]1C(=O)N2C(C(=O)[O-])=C(Sc3nc(-c4cc[n+](C)cc4)cs3)CS[C@H]12)c1nsc(NP(=O)(O)O)n1 [TAK-599]	57.6	76.4
20.6	20.6	CN1CCN(CC/C=C2/c3ccccc3Sc3ccc(S(=O)(=O)N(C)C)cc32)CC1 [THIOTHIXENE]	112	126
> 45.8	20.6	Cc1cc(-n2c(=O)[nH]c(=O)n(C)c2=O)ccc1Oc1ccc(SC(F)(F)F)cc1 [TOLTRAZURIL]		41.6
23.1	20.6	C=C1/C(=C\C=C2/CCC[C@]3(C)[C@@H]([C@H](C)CC[C@@H](O)C(C)C)CC[C@@H]23)C[C@@H](O)C[C@@H]1O [Tacalcitol]	49.2	53.2
20.6	> 45.8	CC1(C)CCC(C)(C)c2cc(NC(=O)c3ccc(C(=O)O)cc3)ccc21 [Tamibarotene]	52.7	
23.1	18.3	CC/C(=C(\c1ccccc1)c1ccc(OCCN(C)C)cc1)c1ccccc1 [Tamoxifen]	101	93
18.3	18.3	O=C(OC[C@H]1O[C@@H](OC(=O)c2cc(O)c(O)c(OC(=O)c3cc(O)c(O)c(O)c3)c2)[C@H](OC(=O)c2cc(O)c(O)c(OC(=O)c3cc(O)c(O)c(O)c3)c2)[C@@H](OC(=O)c2cc(O)c(O)c(OC(=O)c3cc(O)c(O)c(O)c3)c2)[C@@H]1OC(=O)c1cc(O)c(O)c(OC(=O)c2cc(O)c(O)c(O)c2)c1)c1cc(O)c(O)c(OC(=O)c2cc(O)c(O)c(O)c2)c1 [Tannic acid]	108	102

SMILES	IC50 cell viability (HCT116 [1]; ICRF193 0 nM) [µM]	IC50 cell viability (HCT116 [1]; ICRF193 200 nM) [µM]	efficacy (HCT116 [2]; ICRF193 0 nM) [%]	efficacy (HCT116 [2]; ICRF193 200 nM) [%]
C=C(C)[C@H]1Cc2c(ccc3c2O[C@@H]2COc4cc(OC)c(OC)cc4[C@@H]2C3=O)O1 [Rotenone]	0.326	0.517	69.7	89.1
CC[C@@H](C(=O)[C@@H](C)[C@@H](O)[C@H](C)[C@@H]1O[C@@H]([C@@H](CC)C(=O)O)CC[C@@H]1C)[C@H]1O[C@]2(C=C[C@@H](O)[C@]3(CC[C@@](C)([C@H]4CC[C@](O)(CC)[C@H](C)O4)O3)O2)[C@H](C)C[C@@H]1C [SALINOMYCIN, SODIUM]	2.31	1.3	104	100
CN1CCC2=C(C1)c1ccccc1Cc1ccccc12 [Setiptiline]	20.6	> 45.8	44.1	
